Measured values: PMC9501232, “Novel 4-Azapregnene Derivatives as Potential Anticancer Agents: Synthesis, Antiproliferative Activity and Molecular Docking Studies” (Molecules, 2022)

What was measured:
Assay type in all cases: cell-based, human
[1] = system: LNCaP cells; assay: MTT cell proliferation assay, LNCaP; conditions: 72 h
Protocol: (§1) Cell lines, namely LNCaP, PC-3, T47-D and NHDF were obtained from American Type Culture Collection (ATCC; Manassas, VA, USA) and cultured in 75 cm^2 culture flasks at 37 °C in a humidified air incubator with 5% CO2. LNCaP, PC-3 and T47-D cells, which were used in passages 20th to 27th, 25th to 29th and 10th to 15th, respectively, were cultured in RPMI 1640 medium (Sigma-Aldrich, Inc., St. Louis, MO, USA) with 10% fetal bovine serum (FBS; Sigma-Aldrich, Inc. St. Louis, MO, USA) and 1% of the antibiotic mixture of 10,000 IU/mL penicillin G and […] of streptomycin (Sp, Sigma-Aldrich, Inc. St. Louis, MO, USA). Finally, NHDF cells (Normal Human Dermal Fibroblasts) were cultured in RPMI 1640 medium supplemented with 10% FBS, 2 mM L-glutamine, 10 mM HEPES, 1 mM sodium pyruvate and 1% of an antibiotic/antimycotic mixture (10,000 U/mL penicillin G, 100 mg/mL streptomycin and 25 µg/mL amphotericin B) (Ab; Sigma-Aldrich, Inc. St. Louis, MO, USA), and these cells were used in passages 10 to 12. For all cell types, the medium was renewed every 2–3 days until cells reach nearly the confluence state. Then, they were detached gently by trypsinization (trypsin-EDTA solution: 0.125 g/L of trypsin and 0.02 g/L of EDTA).
(§2) All the stock solutions were prepared by dissolving compounds in dimethyl sulfoxide (DMSO; Sigma-Aldrich, Inc., St. Louis, MO, USA) at 10 mM and stored at 4 °C. From these solutions, the several diluted compounds solutions in different concentrations were freshly prepared in a complete culture medium before each experiment.
(§3) As previously referred, cells were trypsinized after reaching a near confluence state and counted by the trypan blue exclusion assay in a Neubauer chamber. Then, 100 µL of cell suspension/well with an initial density of 2 × 10^4 cells/mL were seeded in 96-well culture plates (Nunc, Apogent, Denmark) and left to adhere for 48 h. After cells adherence, the medium was replaced by the distinct solutions of the compounds in the study (30 µM for preliminary studies and 0.01, 0.1, 1, 10, 50 and 100 µM for concentration–response studies) in the appropriate medium for approximately 72 h. 5-FU and finasteride were used as positive controls and untreated cells were used as the negative control. Each experiment was performed in quadruplicate and independently performed at least two times. The in vitro antiproliferative effects were evaluated by the MTT assay (Sigma-Aldrich, Inc. St. Louis, USA). After the incubation period, the medium was removed and 100 µL of phosphate buffer saline (NaCl 137 mM, KCl 2.7 mM, Na2HPO4 10 mM and KH2PO4 1.8 mM in deionized water and pH adjusted to 7.4) were used to wash the cells. Then, 100 µL of the MTT solution (5 mg/mL) was prepared in the appropriate serum-free medium and was added to each well, followed by incubation for 4 h at 37 °C. Hereafter, the MTT containing medium was removed and the formazan crystals were dissolved in DMSO. Then the absorbance was measured at 570 nm using a microplate spectrophotometer BIO-RAD xMarkTM. Cell viability values were expressed as percentages relative to the absorbance determined in the cells used as negative controls.
(§4) The data are expressed as a mean ± standard deviation (SD) and differences between groups were considered statistically significant when p < 0.05. The IC50 values were determined through sigmoidal fitting analysis with variable slope and considering a 95% confidence level. All data shown are representative of at least two independent experiments.

[2] = system: T47-D cells; assay: MTT cell proliferation assay, T47-D; conditions: 72 h
Protocol: as §1, §2, §3, §4

[3] = system: T47-D cells; assay: Cell nuclear morphology and distribution analysis with ImageJ
Text: The nuclear measurements were achieved by converting 16-bit photomicrographs of Hoechst 3342-stained nuclei, in different conditions, into 8-bit images and then these images were autothresholded to binary photos using the default method “Make binary” function of ImageJ v 1.49. Cell nuclei that are touching were separated and fragments were discarded based on the area through the “Analyze Particle” function. This function also provides several information pretended as nuclear area, circumference and form factor [33]. In addition, the “Nearest Neighbor Distance” was determined. This function allows measuring the distance between each cell nucleus and the nearest ones.

[4] = system: caspase-9 activity in T47-D cells; assay: Caspase-Glo 9 caspase-9 activity assay; conditions: 48 h, DOX 10 µM, 3g 10 and 20 µM, relative to untreated cells
Protocol: Promega Caspase-Glo 9 assay (Promega, Madison, WI, USA) was employed to evaluate the caspase-9 activity. T47-D cells were seeded in a 96 multiwell plate at a density of 4 × 10^4 cells/mL. After 48 h, cells were treated with the positive control, DOX, at 10 μM and with 10 and 20 μM of 3g, during 48 h. The assay was performed at the end of treatment, following the instructions provided by the manufacturer. Data are representative of at least two experiments (n = 4 in each).

[5] = system: LNCaP cells; assay: Flow cytometry cell viability after PI staining; conditions: 50 µM
Protocol: Similar to the previous study, the analysis of cell viability was accomplished by flow cytometry after staining dead cells with propidium iodide (PI; Invitrogen, Carlsbad, USA). Succinctly, 1 mL of a cell suspension was seeded in 12-well culture plates (initial cell density of 5 × 10^4 cells/mL of LNCaP cells for 24 h assay and 2 × 10^4 cells/mL of the same cell line for 72 h assay) in a complete culture medium. After 48 h, the cells were treated with finasteride and 5-FU, as positive controls, and compound 3g at a concentration of 50 µM. Untreated cells were used as a negative control. At the pretended time point, the supernatant was collected and pooled with the cells harvested by trypsin treatment (each well was also washed with 400 µL of PBS before trypsin treatment). The resulting cell suspension was kept on ice and pelleted by centrifugation and resuspended with 400 µL of complete medium. Afterward, 5 µL of PI (1 mg/mL) was transferred to a FACS tube and 395 µL of the cell suspension was added to this tube. A total of 20,000 events (very small events excluded) were acquired using a FACSCalibur flow cytometer, using the FCS, SSC and FL3 (PI) channels. Acquisition and analysis were executed with CellQuestTM Pro (v. 5.1) software. […] The percentages of each region were calculated for a total of R1 + R2 + R3. […]

## C[C@]12CC[C@H]3[C@@H](CC=C4NC(=O)CC[C@@]43C)[C@@H]1CC[C@@H]2C(=O)/C=C/c1cccnc1 [Compound 3g, 21E-[(Pyridin-3-yl)methylidene]-4-azapregn-5-ene-3,20-dione]
[1]; 30 µM, average ± SD
  MTT screening, cell proliferation: 0.7 ± 1.0 percentage of negative control
[1]; Homo sapiens, MTT
  IC50: 10.2 µM
[2]; 30 µM, average ± SD
  MTT screening, cell proliferation: 1.0 ± 0.4 percentage of negative control
[2]; Homo sapiens, T47D, MTT
  IC50: 1.33 µM
[3]; 20 µM, 24, 48 and 72 h, vs control
  Nuclear area: significant decrease in the nuclear area
[3]; 20 µM, 48 and 72 h
  Nearest neighbor distance (NND) of cell nuclei: different distances
[4]
  Caspase-9 activity: significant elevation in caspase-9 activity
[5]; 24 h
  Number of living cells (PI non-permeant): drastic reduction in the number of living cells
[5]; 72 h
  Number of viable cells (PI non-permeant): almost absent
